Assay results as given in paper PMC4384708, “Molecular imaging of angiogenesis after myocardial infarction by ^111In-DTPA-cNGR and ^99mTc-sestamibi dual-isotope myocardial SPECT” (EJNMMI Research, 2015).

Assays:
[1] = ^99mTc-sestamibi perfusion uptake (SUV) per AHA 17 segment, in vivo dual-isotope micro-SPECT; parameters: species or system Swiss mice
Protocol: MI was induced in 10- to 12-week old male Swiss mice by ligation of the left anterior descending coronary artery (LAD) (n = 7), as previously described. The angiogenesis imaging protocol was performed 7 days after the LAD ligation. A group of non-operated male Swiss mice (n = 5) was used as control. A variable number of animals were available for analysis per experiment. For SPECT scans, seven MI mice and five control mice were used while for biodistribution purposes ≥5 MI mice and ≥4 control mice were used. Furthermore, a group of six 10- to 12-week old male Swiss mice were bilaterally, subcutaneously implanted in the flanks with Matrigel (Table 1). […] All animals were held under the guidelines of the animal care facility (Maastricht University). All animal experiments were approved by the Committee for Animal Welfare of Maastricht University.
Mice were anesthetised with isoflurane (induction 2.5%; maintenance; 1.5%), a catheter was placed in the tail vein and the animals were positioned in the micro-SPECT camera (MiLabs, Utrecht, The Netherlands).
U-SPECT-II reconstruction software version 2.38 (MiLabs, Utrecht, The Netherlands) was used to reconstruct images. ^99mTc and ^111In images were reconstructed by selecting the photopeak (PP) and background (BG) windows as indicated in Figure 1.
To allow quantification of radiotracer uptake in vivo, conversion factors (CFs) were determined for the 0.6-mm collimator system in a representative phantom (20 ml) for ^99mTc and/or ^111In. During the SPECT reconstruction, the total amount of counts was distributed over the different voxels, resulting in a counts/voxel expression for the average concentration of counts. Taking into account the voxel volume (Vv), the CFs are calculated using equation (a):a ConversionfactorMBq=ActivityconcentrationMBq/ml/SPECTcountspervoxel/Vvml
The PMOD 2.95 cardiac tool PCARD (PMOD Technologies, Zürich, Switzerland) was used to segment the heart in the 17-segment model according to the American Heart Association (AHA) guidelines. For both the ^99mTc-sestamibi and ^111In-DTPA-cNGR images, the uptake was measured for each segment and expressed as mean standardised uptake value (SUVmean) using equation (b).b SUV=SPECTcountspervoxel×CF/VvMBq/ml×Bodyweightg/InjecteddoseMBq
For body weight, we assumed that 1 g of body weight equalled 1 ml.

[2] = system: CD13; conditions: cNGR tripeptide vs. linear entity; cited from earlier work
Excerpt: In this study, we designed and developed a CD13 molecular imaging probe that allowed sensitive visualisation using micro-SPECT imaging. […] Thereto, the cNGR tripeptide was conjugated with diethylene triamine pentaacetic acid (DTPA), radiolabeled with ^111In and evaluated in a mouse model of myocardial infarction in combination with ^99mTc-sestamibi in dual-isotope micro-SPECT imaging. In order to determine binding spec ...

Molecule: [C-]#[N+]CC(C)(C)OC.[C-]#[N+]CC(C)(C)OC.[C-]#[N+]CC(C)(C)OC.[C-]#[N+]CC(C)(C)OC.[C-]#[N+]CC(C)(C)OC.[C-]#[N+]CC(C)(C)OC.[Tc] [^99mTc-sestamibi]
- SUV ([1]; segment 1. Basal anterior, MI mice n = 7, 7 days after LAD ligation, mean ± S.E.M.): 1.94 ± 0.36
- SUV ([1]; segment 1. Basal anterior, healthy control mice n = 5, mean ± S.E.M.): 1.87 ± 0.34
- SUV ([1]; segment 2. Basal anteroseptal, MI mice n = 7, 7 days after LAD ligation, mean ± S.E.M.): 1.72 ± 0.33
- SUV ([1]; segment 2. Basal anteroseptal, healthy control mice n = 5, mean ± S.E.M.): 1.63 ± 0.28
- SUV ([1]; segment 3. Basal inferoseptal, MI mice n = 7, 7 days after LAD ligation, mean ± S.E.M.): 1.38 ± 0.28
- SUV ([1]; segment 3. Basal inferoseptal, healthy control mice n = 5, mean ± S.E.M.): 1.54 ± 0.29
- SUV ([1]; segment 4. Basal inferior, MI mice n = 7, 7 days after LAD ligation, mean ± S.E.M.): 1.64 ± 0.24
- SUV ([1]; segment 4. Basal inferior, healthy control mice n = 5, mean ± S.E.M.): 1.77 ± 0.28
- SUV ([1]; segment 5. Basal inferolateral, MI mice n = 7, 7 days after LAD ligation, mean ± S.E.M.): 1.78 ± 0.31
- SUV ([1]; segment 5. Basal inferolateral, healthy control mice n = 5, mean ± S.E.M.): 1.68 ± 0.30
- SUV ([1]; segment 6. Basal anterolateral, MI mice n = 7, 7 days after LAD ligation, mean ± S.E.M.): 2.11 ± 0.39
- SUV ([1]; segment 6. Basal anterolateral, healthy control mice n = 5, mean ± S.E.M.): 1.95 ± 0.33
- SUV ([1]; segment 7. Mid anterior, MI mice n = 7, 7 days after LAD ligation, mean ± S.E.M.): 1.18 ± 0.26
- SUV ([1]; segment 7. Mid anterior, healthy control mice n = 5, mean ± S.E.M.): 1.80 ± 0.30
- SUV ([1]; segment 8. Mid anteroseptal, MI mice n = 7, 7 days after LAD ligation, mean ± S.E.M.): 1.73 ± 0.27
- SUV ([1]; segment 8. Mid anteroseptal, healthy control mice n = 5, mean ± S.E.M.): 1.67 ± 0.28
- SUV ([1]; segment 9. Mid inferoseptal, MI mice n = 7, 7 days after LAD ligation, mean ± S.E.M.): 1.82 ± 0.30
- SUV ([1]; segment 9. Mid inferoseptal, healthy control mice n = 5, mean ± S.E.M.): 1.80 ± 0.34
- SUV ([1]; segment 10. Mid inferior, MI mice n = 7, 7 days after LAD ligation, mean ± S.E.M.): 1.85 ± 0.31
- SUV ([1]; segment 10. Mid inferior, healthy control mice n = 5, mean ± S.E.M.): 1.72 ± 0.28
- SUV ([1]; segment 11. Mid inferolateral, MI mice n = 7, 7 days after LAD ligation, mean ± S.E.M.): 1.60 ± 0.32
- SUV ([1]; segment 11. Mid inferolateral, healthy control mice n = 5, mean ± S.E.M.): 1.71 ± 0.25
- SUV ([1]; segment 12. Mid anterolateral, MI mice n = 7, 7 days after LAD ligation, mean ± S.E.M.): 1.15 ± 0.37
- SUV ([1]; segment 12. Mid anterolateral, healthy control mice n = 5, mean ± S.E.M.): 2.03 ± 0.32
- SUV ([1]; segment 13. Apical anterior, MI mice n = 7, 7 days after LAD ligation, mean ± S.E.M.): 0.49 ± 0.10
- SUV ([1]; segment 13. Apical anterior, healthy control mice n = 5, mean ± S.E.M.): 1.64 ± 0.30
- SUV ([1]; segment 14. Apical septal, MI mice n = 7, 7 days after LAD ligation, mean ± S.E.M.): 1.55 ± 0.25
- SUV ([1]; segment 14. Apical septal, healthy control mice n = 5, mean ± S.E.M.): 1.82 ± 0.34
- SUV ([1]; segment 15. Apical inferior, MI mice n = 7, 7 days after LAD ligation, mean ± S.E.M.): 1.36 ± 0.35
- SUV ([1]; segment 15. Apical inferior, healthy control mice n = 5, mean ± S.E.M.): 1.67 ± 0.28
- SUV ([1]; segment 16. Apical lateral, MI mice n = 7, 7 days after LAD ligation, mean ± S.E.M.): 0.64 ± 0.24
- SUV ([1]; segment 16. Apical lateral, healthy control mice n = 5, mean ± S.E.M.): 1.60 ± 0.30
- SUV ([1]; segment 17. Apex, MI mice n = 7, 7 days after LAD ligation, mean ± S.E.M.): 0.39 ± 0.17
- SUV ([1]; segment 17. Apex, healthy control mice n = 5, mean ± S.E.M.): 1.47 ± 0.34

Molecule: oxidised NAc-Cys-Asn-Gly-Arg-Cys-Gly-Gly-Lys-NH2 (disulfide) [cNGR, cyclic(NAc-Cys-Asn-Gly-Arg-Cys-Gly-Gly-Lys), disulfide-cyclised CD13-homing peptide]
- targeting efficacy relative to the linear entity [2]: tenfold higher
